Data on 1 compound can be found in US20080111109A1, “ORGANIC-ELECTROLUMINESCENCE-MATERIAL-CONTAINING SOLUTION, METHOD FOR FORMING THIN FILM OF ORGANIC ELECTROLUMINESCENCE MATERIAL, THIN FILM OF ORGANIC ELECTROLUMINESCENCE MATERIAL AND ORGANIC ELECTROLUMINESCENCE DEVICE” (Idemitsu Kosan Co., Ltd., priority 2006, published 2008).

The data set can be described thus: Solubility in the solvent of a naphthacene compound with para-bonded aromatic substituents. In kind it is physicochemical. Conditions: solvent not specified (aromatic, halogen type or ether type solvent).

`c1ccc(-c2ccc(-c3c4ccccc4c(-c4ccc(-c5ccccc5)cc4-c4ccccc4)c4cc5ccccc5cc34)c(-c3ccccc3)c2)cc1` gave a solubility of no more than 0.1 wt %.
